For one data set, the target named is SYK kinase (Homo sapiens, UniProt P43405). Nature of the data set: SYK kinase assay (HTRF KinEASE-TK). Type of data set: biochemical. The following applies: class symbols, read-out: Syk inhibition IC50. Put shortly: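 SYK pre-incubated with compound for 10 min at room temperature, then reacted with biotinylated TK substrate and ATP for 30 min in buffer with 5 mM MgCl2, 1 mM MnCl2 and 1 mM DTT. HTRF 665/615 ratio read after 1 h detection. IC50 from variable-slope fit.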

A short description of data set [1]: In vivo pharmacokinetic analysis, single dose, ICR mice. The following applies: mouse, male, plasma; for AUC(0-inf) / AUC(0-t) / Cmax / Tmax / half-life: single dose; for bioavailability: PO 10 mg/kg vs IV 2 mg/kg, read-out: F % (bioavailability). The method, then: This is a single-dose study in ICR mice (male, n=9/administration) with intravenous and oral administration. Compound concentrations in plasma were measured and calculated for pharmacokinetic (PK) analysis via WinNonLin 6.4.

The target of a further data set is T1, Ba/F3-TEL-SYK cells (Homo sapiens, UniProt P43405).
T1 construct: fused on or other part: N-terminal part of TEL (ETV6) with its oligomerising PNT/SAM domain, fused before the SYK part that carries the kinase domain; P41212 (Transcription factor ETV6)
Nature of the data set: Ba/F3-TEL-SYK cell-based assay (CellTiter-Glo proliferation). The following applies: 72 hr, read-out: BaF3 Cell assay IC50. The method, then:
CellTiter-Glo® Luminescent Cell Viability Assay was used to determine the number of viable cells in culture based on quantitation of the ATP present, as an indicator of metabolically active cells. The assay was performed in the following steps: First, the testing compounds were dissolved in DMSO to make a stock solution. The stocks (10 mM) were then diluted to varying concentrations: […], 0.305 and 0.102 μM. An aliquot of 0.2 μl of diluted compounds were added to the 384 well assay plate. Second, added 40 μl of cell suspension with 800 Ba/F3-TEL-SYK cells into each well and incubated the plate at 37° C., 5% CO2 for 72 hr. Then, added 20 μl Cell Titer-Glo Reagent into each well of the cell culture plate. Mixed the contents for 2 min on an orbital shaker to lyse cells, and rest the plate at room temperature for 30 min. Finally, luminescence values were obtained using an Envision 2104 plate reader (PerkinElmer) and calculated the average data and Standard Deviation (SD) of DMSO and Reference (GS-9973, 1 μM) as high control and low control. To determine the IC50 value, fit the data using non-linear regression equation.
In general terms: ATP-based viability assays read luminescence as a measure of living cells.

For orientation: IC50 means the point on the concentration scale where inhibition reaches its midpoint. The AUC(0-inf) is total exposure, with the tail of the curve extrapolated. Lower therefore signals low exposure. What is called AUC(0-t) is exposure summed from dosing to a finite time, without extrapolation to infinity. A lower AUC(0-t) goes with less exposure. Broadly, the Cmax is the maximum level reached in the sampled fluid or tissue. As a reminder, the Tmax is the time at which the peak concentration occurs. One may read the half-life as the time needed for the level to fall by half in the phase considered. High values mean slow loss, low ones fast loss. As usually defined, the bioavailability is dose-corrected exposure relative to a reference, in per cent. On to `c1nc2c(Nc3ccc(N4CCOCC4)cc3)nc(-c3ccc4cc[nH]c4c3)cn2n1` [I10, 6-(1H-indol-6-yl)-N-(4-morpholinophenyl)-[1,2,4]triazolo[1,5-a]pyrazin-8-amine], for which, at SYK kinase, the concentration for half-maximal inhibition (IC50) is ≤ 0.05 µM. Further, in data set [1] (IV Administration (2 mg/kg)), the AUC(0-inf) is 11.4 µg·h/mL, the AUC(0-t) is 11.2 µg·h/mL, the Cmax is 8.81 µg/mL and the time to peak (Tmax) was 4.8 min. The half-life in data set [1] (IV Administration (2 mg/kg)) is 99 min. In data set [1] (PO Administration (10 mg/kg)), the AUC(0-inf) was 28.5 µg·h/mL, the AUC(0-t) turned out to be 28.5 µg·h/mL, the Cmax is 2.16 µg/mL and the time of peak concentration (Tmax) turned out to be 240 min. Also, the half-life in data set [1] (PO Administration (10 mg/kg)) was 100 min. Further, the bioavailability in data set [1] was determined as 50.8%. Besides, at Ba/F3-TEL-SYK cells, the GI50 was 0.05 to 0.5 µM.

Regarding `COc1cc(Nc2nc(-c3ccc4cn[nH]c4c3)cn3ncnc23)ccc1N1CCC(C)(O)CC1` [I22, 1-(4-((6-(1H-indazol-6-yl)-[1,2,4]triazolo[1,5-a]pyrazin-8-yl)amino)-2-methoxyphenyl)-4-methylpiperidin-4-ol], the IC50 at SYK kinase was ≤ 0.05 µM. Also, in data set [1] (IV Administration (2 mg/kg)), the AUC(0-inf) was found to be 0.429 µg·h/mL, the area under the curve AUC(0-t) came out at 0.428 µg·h/mL, the peak level (Cmax) was 1.32 µg/mL and the Tmax is 4.8 min. The compound also had a half-life in data set [1] (IV Administration (2 mg/kg)) of 12.6 min. In addition, in data set [1] (PO Administration (10 mg/kg)), the AUC(0-inf) was 0.125 µg·h/mL, the AUC(0-t) worked out at 0.115 µg·h/mL, the Cmax was determined as 0.108 µg/mL and the Tmax stood at 15 min. Further, the half-life in data set [1] (PO Administration (10 mg/kg)) is 28.8 min. Further, the bioavailability in data set [1] was found to be 5.38%. Moreover, the GI50 on Ba/F3-TEL-SYK cells was ≤ 0.05 µM.

For `c1nc2c(Nc3ccc(N4CCN(C5COC5)CC4)cc3)nc(-c3ccc4cn[nH]c4c3)cn2n1` [I53, 6-(1H-indazol-6-yl)-N-(4-(4-(oxetan-3-yl)piperazin-1-yl)phenyl)-[1,2,4]triazolo[1,5-a]pyrazin-8-amine], on SYK kinase, the IC50 is ≤ 0.05 µM. In data set [1] (IV Administration (2 mg/kg)), the AUC(0-inf) is 2.3 µg·h/mL, the AUC(0-t) was determined as 2.29 µg·h/mL, the Cmax stood at 3.96 µg/mL and the Tmax was 4.8 min. In addition, the half-life in data set [1] (IV Administration (2 mg/kg)) was 590 min. Further, in data set [1] (PO Administration (10 mg/kg)), the AUC(0-inf) was 7.37 µg·h/mL, the AUC(0-t) worked out at 7.33 µg·h/mL, the Cmax came out at 7.52 µg/mL and the time to peak (Tmax) turned out to be 15 min. The compound also showed a half-life in data set [1] (PO Administration (10 mg/kg)) of 265 min. The bioavailability in data set [1] is 64.2%. Also, the GI50 at Ba/F3-TEL-SYK cells was ≤ 0.05 µM.

As to `COc1cc(Nc2nc(-c3ccc4cn[nH]c4c3)cn3ncnc23)ccc1N1CCN(C2COC2)CC1` [I54, 6-(1H-indazol-6-yl)-N-(3-methoxy-4-(4-(oxetan-3-yl)piperazin-1-yl)phenyl)-[1,2,4]triazolo[1,5-a]pyrazin-8-amine], the IC50 on SYK kinase was ≤ 0.05 µM. Besides, in data set [1] (IV Administration (2 mg/kg)), the AUC(0-inf) was determined as 0.5 µg·h/mL, the area under the curve AUC(0-t) was 0.499 µg·h/mL, the peak level (Cmax) was 1.64 µg/mL and the time to peak (Tmax) is 4.8 min. The half-life in data set [1] (IV Administration (2 mg/kg)) was 39 min. Besides, in data set [1] (PO Administration (10 mg/kg)), the area under the curve AUC(0-inf) came to 0.151 µg·h/mL, the AUC(0-t) was found to be 0.145 µg·h/mL, the Cmax turned out to be 0.268 µg/mL and the Tmax was determined as 15 min. Also, the half-life in data set [1] (PO Administration (10 mg/kg)) was 46.8 min. In addition, in data set [1], the bioavailability amounted to 5.81%. The GI50 at Ba/F3-TEL-SYK cells is ≤ 0.05 µM.

Take `c1nc2c(Nc3ccc(N4CCN(C5COC5)CC4)cc3)nc(-c3ccc4cc[nH]c4c3)cn2n1` [I57, 6-(1H-indol-6-yl)-N-(4-(4-(oxetan-3-yl)piperazin-1-yl)phenyl)-[1,2,4]triazolo[1,5-a]pyrazin-8-amine]: the 50% inhibitory concentration (IC50) at SYK kinase is ≤ 0.05 µM. Moreover, in data set [1] (IV Administration (2 mg/kg)), the area under the curve AUC(0-inf) came out at 4.67 µg·h/mL, the area under the curve AUC(0-t) is 4.67 µg·h/mL, the highest level (Cmax) was 7.36 µg/mL and the Tmax came out at 4.8 min. For the same compound, the half-life in data set [1] (IV Administration (2 mg/kg)) was 43.2 min. For the same compound, in data set [1] (PO Administration (10 mg/kg)), the AUC(0-inf) was 14.5 µg·h/mL, the AUC(0-t) stood at 14.5 µg·h/mL, the highest level (Cmax) was 14.4 µg/mL and the time of peak concentration (Tmax) worked out at 15 min. Further, the half-life in data set [1] (PO Administration (10 mg/kg)) is 196 min. Moreover, the bioavailability in data set [1] is 62%. Moreover, on Ba/F3-TEL-SYK cells, the GI50 is ≤ 0.05 µM.

Take `COc1cc(Nc2nc(-c3ccc4cc[nH]c4c3)cn3ncnc23)ccc1N1CCN(C2COC2)CC1` [I58, 6-(1H-indol-6-yl)-N-(3-methoxy-4-(4-(oxetan-3-yl)piperazin-1-yl)phenyl)-[1,2,4]triazolo[1,5-a]pyrazin-8-amine]: the half-inhibitory concentration (IC50) on SYK kinase was ≤ 0.05 µM. Also, in data set [1] (IV Administration (2 mg/kg)), the AUC(0-inf) is 1.68 µg·h/mL, the AUC(0-t) was determined as 1.68 µg·h/mL, the highest concentration (Cmax) turned out to be 5.11 µg/mL and the time of peak concentration (Tmax) was 4.8 min. Moreover, in data set [1] (IV Administration (2 mg/kg)), the half-life is 42.6 min. In data set [1] (PO Administration (10 mg/kg)), the AUC(0-inf) was found to be 0.902 µg·h/mL, the area under the curve AUC(0-t) is 0.895 µg·h/mL, the peak level (Cmax) was 2.57 µg/mL and the Tmax worked out at 15 min. Moreover, the half-life in data set [1] (PO Administration (10 mg/kg)) was 89.4 min. The bioavailability in data set [1] amounted to 10.7%. At Ba/F3-TEL-SYK cells, the GI50 is ≤ 0.05 µM.

Source of the values: patent publication US12577248B2, “Substituted [1,2,4]triazolo[1,5-a]pyrazines as spleen tyrosine kinase inhibitors” (NANJING RUIJIE PHARMA CO., LTD., priority 2020, dated 2026).
